In US20090317376A1, “Compositions And Methods For Lipo Modeling” (Georgetown University MEDICAL SCHOOL, priority 2005, published 2009):
“Also recorded” adds a separate entry of the source.

Tested on: abdominal fat pad
Assay: Local NPY or Y2R antagonist treatment of the abdominal fat pad (ob/ob, WT, eNOS−/− mice)
Assay type: in vivo
Conditions: for capillary density / density of von Willebrand factor positive microvessels in abdominal fat: Y2R antagonist intra-fat vs vehicle; for fat in the region of the pellet (MRI thresholded for fat): compared to Placebo pellets, FIG. 9; for adipocyte number and size, Y2R staining in subcutaneous abdominal fat pad (immunohistochemistry): FIG. 10
Experimental: Eight week old ob/ob mice are used to study the growth of adipose tissue when treated with growth factor NPY versus antagonist. Whether the Y2R antagonist causes regression of fat deposits is determined using an antagonist in older 3-6 month old ob/ob mice. […] Fat pads (subcutaneous abdominal, omental, subcutaneous, sternal, and interscapular) are harvested and examined to determine whether there is hyperplasia, hypertrophy, or apoptosis of the fat cells. Whether NPY-mediated angiogenesis is involved in adipose tissue growth is determined. The anti-angiogenic effects and consequences of Y2R antagonist on adipose tissue growth is determined by subcutaneous injections of Y2R antagonist BIIE0246 (0.2 ml, 1 μM, daily/14 days) periabdominally into the abdominal fat pad or subcutaneous implantation of a slow-release pellet containing BIE0246 (10 μg/14 days) followed by an evaluation of the fat deposits by MRI. These fat pads are then harvested, weighed, and stained for endothelial markers and NPYRs. Fat pads are further characterized by RT-PCR, quantitative real-time PCR, and ELISA.
NPY slow-release pellets (1 μg/14 days) are inserted subcutaneously into the abdominal fat pad of ob/ob, C57BL/6 and SV129 WT mice. […] NPY pellets are also inserted into eNOS^−/− -mice. […] Specific peptide Y2R antagonist, BIIE0246, is subcutaneously injected periabdominally (0.2 ml, 1 μM, daily/14 days) or is given in the form of a slow release pellet (10 μg/14 days). […] Changes in visceral fat are visualized by MRI and quantified by volumetric calculations (FIG. 9). Fat pad weight is also measured upon euthanasia of the mice (FIG. 8).
In vivo treatment of murine model of obesity with antagonist: 6-week-old mice from four murine strains: C57BL-6, ob/ob, SV129, and eNOS^−/− are used. The mice are separated into treatment groups to compare the effects of diet, stress, NPY and specific receptor antagonists. The mice are weighed every other day during the course of the treatment. Control groups for the transgenic mice are matched by background strain, age, and gender. WT C57BL/6 mice (a background strain predisposed to weight gain [64]) is fed a “comfort food diet” consisting of lard and sugar and subjected to cold stress (1 hour in a cage with 1 cm of ice and water at the base of the cage). NPY is delivered locally by the implantation of a NPY slow-release pellet ([…]) into the abdominal fat pad. NPY receptor antagonists or antisense ODN is delivered by rotating daily subcutaneous injections (0.2 ml, 1 μM, daily/14 days) in the abdominal region. 20-mer phosphorothioate oligonucleotide antisense, targeted forward from rat Y2-gene transcription initiation codon (5-[…]-3′) (Molecular Research Laboratories, Herndon, Va.) is used. The scrambled antisense sequence contains some modified deoxynucleotides in a random order (5′-[…]-3′).
Tissue sample collection and processing: After treatment, fat pads are harvested from: 1) subcutaneous abdominal, 2) intra-abdominal (omental), 3) inguinal, 4) interscapular. The total central fat (abdominal region only) weight (FW) and FW to percent of body weight (F/B) is measured. The adipose tissue is processed for paraffin embedding and sections, […], are collected on glass slides for immunohistochemistry. 50 mg of tissue is used for quantitative real-time RT-PCR.
Magnetic Resonance Imaging (MRI): A Brukker 7-Tesla small-animal magnetic resonance imager coil is used to visualize and noninvasively quantitate various fat depots. A 3-dimensional (3D) T2-weighted (T2W) imaging protocol optimized for high contrast fat-imaging is implemented. […] Quantification of the total body fat as well as separate specific fat depots is calculated using thresholding and voxel count plugins from NIH image J software. VolumeJ is used to render, in a 3D image, the various fat depots.

[1] = 8-week old ob/ob mice, s.c. 0.2 ml, 1 μM, daily/14 days or pellet 10 μg/14 days, vs saline/PLC
[2] = BIIE0246 1 μM/day s.c. into the abdominal pads, within 2-weeks
[3] = NPY 1 μg/14 day-pellet, both obese and lean mice
[4] = NPY slow-release pellet 1 μg/14 days vs placebo, ob/ob, C57BL/6 and SV129 WT mice

Compound	decrease in F/B [1] [%]	decrease in FW [1] [%]	decrease of abdominal pad volume [2] [%]	decrease of abdominal pad weight [2] [%]	capillary density / density of von Willebrand factor positive microvessels in abdominal fat (listed as Y2R antagonist)	capillary density / density of von Willebrand factor positive microvessels in abdominal fat (listed as Y2R-antagonist)	fat in the region of the pellet (MRI thresholded for fat)	TUNEL-positive staining of endothelial cells and adipocytes (intra-fat injections of Y2R antagonist)	adipocyte number and size, Y2R staining in subcutaneous abdominal fat pad (immunohistochemistry) (ob/ob mice)	subcutaneous abdominal adipose tissue volume (MRI) [3]	subcutaneous abdominal adipose tissue weight (g) [3]	WAT cellularity, proliferation of small adipocytes (NPY in WT mice)	FW to body weight ratio (F/B) (NPY pellet, eNOS−/− mice)	total central fat weight (FW) / fat pad weight (NPY pellet, eNOS−/− mice)	FW to body weight ratio (F/B) [4]	total central fat weight (FW) / fat pad weight [4]	adipogenic activity in eNOS−/− mice (mice deficient in endothelial nitric oxide synthase)	visceral fat (ob/ob mice, NPY, FIG. 8)
N=C(N)NCCC[C@H](NC(=O)CC1(CC(=O)N2CCN(C3c4ccccc4NC(=O)c4ccccc43)CC2)CCCC1)C(=O)NCCn1c(=O)n(-c2ccccc2)n(-c2ccccc2)c1=O (some centres unmarked) [BIIE0246]	40	40	50	50	decreased the density of von Willebrand-positive microvessels	significant decrease in capillary density	decreased fat	increasing TUNEL-positive staining	fewer but larger adipocytes and fewer Y2Rs									
neuropeptide Y [NPY]							increased fat		greater number of smaller adipocytes	significantly increased	significantly increased	mimicked	no significant weight gain	no significant weight gain	significant increase	significant increase; also recorded: Increase of fat pad weight	resistant to NPY's adipogenic activity	increases visceral fat
